Key:
CLK2 kinase = CLK2 kinase (Homo sapiens, UniProt P49760); assay: CLK2 kinase activity assay (Z-lyte FRET); assay type: biochemical; conditions: Z-lyte Ser/Thr 6 peptide, 60 μM ATP, 1 h at room temperature;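 further: FRET read-out as coumarin to fluorescein emission ratio, unphosphorylated peptide as 0% and phosphorylated peptide as 100% controls, duplicate reactions, non-linear regression fit of dose-response curves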
CLK3 kinase = CLK3 kinase (Homo sapiens, UniProt P49761); assay: CLK3 kinase activity assay (Z-lyte FRET); assay type: biochemical; conditions: Z-lyte Ser/Thr 18 peptide, 156 μM ATP, 1 h at room temperature;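 further: kinase activity read as coumarin/fluorescein emission ratio by FRET, unphosphorylated peptide as 0% and phosphorylated peptide as 100% control, values from non-linear regression of dose-response curves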
CLK3 kinase, sequence (P49761 whole entry): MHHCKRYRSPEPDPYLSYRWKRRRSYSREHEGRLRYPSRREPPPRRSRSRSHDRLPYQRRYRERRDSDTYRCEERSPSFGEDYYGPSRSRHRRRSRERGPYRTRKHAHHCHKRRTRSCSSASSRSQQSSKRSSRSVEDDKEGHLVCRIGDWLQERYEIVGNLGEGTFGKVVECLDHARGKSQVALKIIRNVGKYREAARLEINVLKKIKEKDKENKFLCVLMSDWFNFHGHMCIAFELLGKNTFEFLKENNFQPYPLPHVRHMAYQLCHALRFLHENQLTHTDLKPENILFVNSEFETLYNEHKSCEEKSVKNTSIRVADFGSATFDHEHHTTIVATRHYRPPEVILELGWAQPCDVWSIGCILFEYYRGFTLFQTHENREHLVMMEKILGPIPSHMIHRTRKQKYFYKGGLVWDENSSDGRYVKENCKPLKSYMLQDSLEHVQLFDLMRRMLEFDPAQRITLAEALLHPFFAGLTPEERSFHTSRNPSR

[1] = test system: Wnt pathway activity (SW480 colon carcinoma cells stably expressing the Sp5-Luc reporter); assay: Wnt pathway activity screening assay (Sp5-Luc reporter gene assay); conditions: Homo sapiens, SW480, Table 4; SW480 cells stably expressing Sp5-Luc reporter, 10-point dose-response from 10 μM, 36 to 48 hours
Experimental: The screening assay for Wnt pathway activity is described as follows.
SW480 colon carcinoma cells were transduced with a lentiviral vector expressing luciferase with a human Sp5 promoter consisting of a sequence of eight TCF/LEF binding sites. […] These stably transduced SW480 cells were expanded in cell culture and used for all further screening activities. Each compound was dissolved in DMSO as a 10 mM stock and used to prepare compound source plates. Serial dilution (1:3, 10-point dose-response curves starting from 10 μM) and compound transfer was performed using the ECHO 550 (Labcyte, Sunnyvale, Calif.) into 384-well white solid bottom assay plates (Greiner Bio-One) with appropriate DMSO backfill for a final DMSO concentration of 0.1%. […] Following incubation, 15 μl of BriteLite Plus luminescence reagent (Perkin Elmer) was added to each well of the 384-well assay plates. The plates were placed on an orbital shaker for 2 min and then luminescence was quantified using the Envision (Perkin Elmer) plate reader.

[2] = test system: primary human mesenchymal stem cells (hMSCs); assay: Chondrogenesis screening using primary human mesenchymal stem cells; assay type: cell-based; conditions: Homo sapiens, Mesenchymal stem cells, hMSC chondrogenesis; for Emax: maximum activity relative to TGF-β3 (10 ng/mL) positive control, read-out: Max. Activity as % TGF-β3 activity; for EC50: concentration required to induce 50% levels of chondrogenesis with TGF-β3 as positive control, read-out: Conc (nM) of 50% TGF-β3 activity
Summary of the method: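 Derived values are EC50 for 50% chondrogenesis, maximal activity and the dose giving it. These come from nodule area in passage 3–6 primary hMSCs, expressed as fold change over the mean of 3 same-plate DMSO wells, 2–3 replicates per concentration. TGF-β3 served as positive control.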

CLK2 kinase, sequence (P49760 whole entry): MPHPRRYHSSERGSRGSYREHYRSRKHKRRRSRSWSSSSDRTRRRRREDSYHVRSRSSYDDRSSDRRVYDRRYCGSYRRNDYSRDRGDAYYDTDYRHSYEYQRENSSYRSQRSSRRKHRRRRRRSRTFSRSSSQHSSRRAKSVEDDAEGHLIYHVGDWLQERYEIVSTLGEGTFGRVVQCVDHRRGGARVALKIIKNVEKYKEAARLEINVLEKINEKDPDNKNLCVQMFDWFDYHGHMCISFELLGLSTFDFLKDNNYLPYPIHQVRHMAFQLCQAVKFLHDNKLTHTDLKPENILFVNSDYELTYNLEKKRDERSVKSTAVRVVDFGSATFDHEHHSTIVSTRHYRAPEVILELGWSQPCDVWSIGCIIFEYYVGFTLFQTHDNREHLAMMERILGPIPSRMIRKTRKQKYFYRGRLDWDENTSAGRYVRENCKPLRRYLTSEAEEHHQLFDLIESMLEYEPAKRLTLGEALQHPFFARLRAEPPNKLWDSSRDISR

SMILES | EC50 (CLK2 kinase) [µM] | EC50 (CLK3 kinase) [µM] | EC50 [1] [µM] | EC50 [2] [nM] | Emax [2] [%]
O=C(Nc1cncc(-c2ccc3[nH]nc(-c4cc5c(-c6ccccc6F)nccc5[nH]4)c3c2)c1)C1CCCC1 [compound 331] | 0.015 | 0.158 | 0.418 | – | 70.8
CC(C)Nc1cncc(-c2cnc3[nH]nc(-c4cc5c(-c6ccccc6F)nccc5[nH]4)c3c2)c1 [compound 332] | 0.006 | 0.196 | 0.435 | 10 | 75.8
CCNCc1cncc(-c2cc3c(-c4cc5c(-c6ccccc6F)ccnc5[nH]4)n[nH]c3cn2)c1 [compound 335] | 0.019 | 2.31 | > 10 | 30 | 270
Fc1ccccc1-c1nccc2[nH]c(-c3n[nH]c4cnc(-c5cncc(CN6CCCC6)c5)cc34)cc12 [compound 338] | 0.005 | 0.222 | 1.98 | 10 | 69.4
Fc1ccccc1-c1cncc2[nH]c(-c3n[nH]c4ncc(-c5cn[nH]c5)cc34)cc12 [compound 339] | 0.007 | 0.099 | 0.375 | – | 51.1
Fc1ccccc1-c1nccc2[nH]c(-c3n[nH]c4cnc(-c5cn[nH]c5)cc34)cc12 [compound 340] | 0.01 | 0.785 | 0.0305 | 10 | 89.2
CC(C)C(=O)Nc1cncc(-c2cc3c(-c4cc5c(-c6cccnc6)cccc5[nH]4)n[nH]c3cn2)c1 [compound 350] | 0.011 | 1.91 | 0.275 | 10 | 201
O=C(Nc1cncc(-c2cc3c(-c4cc5c(-c6cccnc6)cccc5[nH]4)n[nH]c3cn2)c1)C1CC1 [compound 354] | 0.012 | 0.537 | 0.33 | 100 | 308
O=C(Nc1cncc(-c2cnc3[nH]nc(-c4cc5c(-c6cccnc6)cccc5[nH]4)c3c2)c1)C1CCC1 [compound 355] | 0.008 | 0.151 | 0.202 | – | 41.3
O=C(Nc1cncc(-c2ccc3[nH]nc(-c4cc5c(-c6cccnc6)cncc5[nH]4)c3c2)c1)C1CCCC1 [compound 356] | 0.006 | 0.078 | 1.35 | – | 45.5
O=C(Nc1cncc(-c2ccc3[nH]nc(-c4cc5c(-c6cccnc6)cncc5[nH]4)c3c2)c1)c1ccccc1 [compound 358] | 0.007 | 0.071 | > 10 | – | 68.5
CC(C)Nc1cncc(-c2ccc3[nH]nc(-c4cc5c(-c6cccnc6)cccc5[nH]4)c3c2)c1 [compound 359] | 0.006 | 0.962 | 0.1 | 10 | 226
CC(C)Nc1cncc(-c2ccc3[nH]nc(-c4cc5c(-c6cccnc6)ccnc5[nH]4)c3c2)c1 [compound 361] | 0.005 | 0.164 | > 10 | – | 45.5
CC(C)Nc1cncc(-c2cc3c(-c4cc5c(-c6cccnc6)ccnc5[nH]4)n[nH]c3cn2)c1 [compound 363] | 0.008 | 9.84 | > 10 | 10 | 77
CC(C)Nc1cncc(-c2ccc3[nH]nc(-c4cc5c(-c6cccnc6)ccnc5[nH]4)c3n2)c1 [compound 364] | 0.01 | 0.139 | 0.255 | – | 47.2
CCNCc1cncc(-c2ccc3[nH]nc(-c4cc5c(-c6cccnc6)ccnc5[nH]4)c3c2)c1 [compound 365] | 0.013 | 0.443 | > 10 | – | 28.7
CN(C)Cc1cncc(-c2ccc3[nH]nc(-c4cc5c(-c6cccnc6)cccc5[nH]4)c3n2)c1 [compound 368] | 0.004 | 0.102 | 0.415 | – | 35.9
c1cncc(-c2ccnc3[nH]c(-c4n[nH]c5cnc(-c6cncc(CN7CCCC7)c6)cc45)cc23)c1 [compound 369] | 0.009 | 0.102 | > 10 | – | 16.7
FC1(F)CCN(Cc2cncc(-c3ccc4[nH]nc(-c5cc6c(-c7cccnc7)ccnc6[nH]5)c4c3)c2)C1 [compound 370] | 0.006 | 0.101 | 0.523 | – | 20.3
FC1(F)CCN(Cc2cncc(-c3ccc4[nH]nc(-c5cc6c(-c7cccnc7)cncc6[nH]5)c4n3)c2)C1 [compound 371] | 0.011 | 0.408 | 3.85 | – | 23.3
c1cncc(-c2cncc3[nH]c(-c4n[nH]c5ncc(-c6cncnc6)cc45)cc23)c1 [compound 373] | 0.004 | 0.156 | > 10 | – | 24.1
c1cncc(-c2ccnc3[nH]c(-c4n[nH]c5cnc(-c6cncnc6)cc45)cc23)c1 [compound 374] | 0.019 | 9.84 | > 10 | – | 49.6
Cn1cc(-c2ccc3[nH]nc(-c4cc5c(-c6cccnc6)cncc5[nH]4)c3c2)cn1 [compound 375] | 0.006 | 0.1 | 0.25 | – | 65.2

Continued by falling EC50 (CLK2 kinase), values first:

EC50 (CLK2 kinase) [µM] | EC50 (CLK3 kinase) [µM] | EC50 [1] [µM] | EC50 [2] [nM] | SMILES | Emax [2] [%]
0.004 | 0.09 | > 10 | – | c1cncc(-c2ccc3[nH]nc(-c4cc5c(-c6cccnc6)ccnc5[nH]4)c3c2)c1 [compound 342] | 16.7
0.004 | 0.133 | > 10 | 10 | Cc1ccncc1-c1ccc2[nH]nc(-c3cc4c(-c5cccnc5)cncc4[nH]3)c2n1 [compound 346] | 149
0.004 | 9.84 | > 10 | 10 | CCCCC(=O)Nc1cncc(-c2cc3c(-c4cc5c(-c6cccnc6)ccnc5[nH]4)n[nH]c3cn2)c1 [compound 351] | 52.8
0.004 | 0.33 | 0.67 | – | CC(C)Nc1cncc(-c2ccc3[nH]nc(-c4cc5c(-c6cccnc6)cncc5[nH]4)c3c2)c1 [compound 360] | 41.9
0.004 | 0.292 | > 10 | 10 | CC(C)Nc1cncc(-c2cnc3[nH]nc(-c4cc5c(-c6cccnc6)ccnc5[nH]4)c3c2)c1 [compound 362] | 135
0.004 | 0.074 | > 10 | 10 | CCNCc1cncc(-c2cnc3[nH]nc(-c4cc5c(-c6cccnc6)ccnc5[nH]4)c3c2)c1 [compound 366] | 91.8
0.003 | 0.107 | 2.49 | – | CN(C)Cc1cncc(-c2cnc3[nH]nc(-c4cc5c(-c6ccccc6F)cncc5[nH]4)c3c2)c1 [compound 336] | 60.9
0.003 | 0.468 | 1.34 | 100 | c1cncc(-c2cc3c(-c4cc5c(-c6cccnc6)cncc5[nH]4)n[nH]c3cn2)c1 [compound 343] | 76.4
0.003 | 9.84 | > 10 | 100 | c1cncc(-c2ccc3[nH]nc(-c4cc5c(-c6cccnc6)ccnc5[nH]4)c3n2)c1 [compound 344] | 59.2
0.003 | 0.107 | 2.25 | – | Cc1ccncc1-c1cnc2[nH]nc(-c3cc4c(-c5cccnc5)cncc4[nH]3)c2c1 [compound 345] | 17.4
0.003 | 0.538 | 0.18 | 10 | CCC(=O)Nc1cncc(-c2cnc3[nH]nc(-c4cc5c(-c6cccnc6)cccc5[nH]4)c3c2)c1 [compound 348] | 671
0.003 | 9.84 | > 10 | – | CC(C)CC(=O)Nc1cncc(-c2cnc3[nH]nc(-c4cc5c(-c6cccnc6)ccnc5[nH]4)c3c2)c1 [compound 352] | 43.5
0.003 | 0.085 | > 10 | – | CC(C)(C)CC(=O)Nc1cncc(-c2cnc3[nH]nc(-c4cc5c(-c6cccnc6)cncc5[nH]4)c3c2)c1 [compound 353] | 37.3
0.003 | 0.043 | 0.421 | – | O=C(Nc1cncc(-c2ccc3[nH]nc(-c4cc5c(-c6cccnc6)nccc5[nH]4)c3c2)c1)c1ccccc1 [compound 357] | 19.4
0.002 | 0.089 | 2.29 | – | CCNCc1cncc(-c2cnc3[nH]nc(-c4cc5c(-c6ccccc6F)cncc5[nH]4)c3c2)c1 [compound 334] | 37.3
0.002 | 0.109 | 1.37 | 30 | CN(C)Cc1cncc(-c2ccc3[nH]nc(-c4cc5c(-c6ccccc6F)cncc5[nH]4)c3n2)c1 [compound 337] | 50.6
0.002 | 0.037 | 0.26 | – | CC(C)C(=O)Nc1cncc(-c2ccc3[nH]nc(-c4cc5c(-c6cccnc6)cncc5[nH]4)c3c2)c1 [compound 349] | 34.5
0.002 | 0.069 | > 10 | – | c1cncc(-c2ccnc3[nH]c(-c4n[nH]c5ncc(-c6cncc(CN7CCCCC7)c6)cc45)cc23)c1 [compound 372] | 43.9

Source: patent publication US20230000842A1, “METHODS OF TREATING CARTILAGE DISORDERS THROUGH INHIBITION OF CLK AND DYRK” (SAMUMED, LLC, priority 2019, published 2023)
